Data: publication PMC6818106, “Synthesis of thiazolidin-4-ones and thiazinan-4-ones from 1-(2-aminoethyl)pyrrolidine as acetylcholinesterase inhibitors” (Journal of Enzyme Inhibition and Medicinal Chemistry, 2019)

What was measured:
AChE [1] = molecular target: T1, AChE (Rattus norvegicus, UniProt P37136); assay: In vitro AChE activity (Ellman method) in hippocampus homogenate; assay type: biochemical; conditions: for IC50: rat hippocampus homogenate, calculated with GraphPad Prism 5, read-out: IC50 of AChE inhibition, Hippocampus; for concentration from which AChE activity was inhibited, hippocampus: vs control group (water and methanol), p < .05, tested 0.1-250 μM
T1 construct: the use of crude homogenised from rat’s brain structures, as used in the present work; from tissue; host or cells: Wistar rat cerebral cortex, homogenate supernatant
Experimental: (§1) In vitro was evaluated the potential inhibition of thiazolidin-4-ones and thiazinan-4-ones against AChE activity enzyme in hippocampus and cerebral cortex of Wistar rats (60 days, 250–300 g), since it is well described that these two structures in the brain play an important role in memory. All procedures involving the animals were approved by the Committee of Ethics in Animal Experimentation of UFPel (CEEA 9219). The animals were submitted to euthanasia and the brain was removed. Subsequently, the hippocampus and cerebral cortex were separated and homogenised in buffer Tris HCl 10 mM (pH 7.4). The homogenates were centrifuged at 1800 rpm for 10 min and the supernatant was used for in vitro analyses of the potential inhibitory effect of thiazolidin-4-one and thiazinan-4-ones on AChE activity.
(§2) The compounds were solubilised in methanol and prepared in different concentrations (0.1, 0.5, 1, 5, 10, 25, 50, 100 and 250 μM). […] The thiocholine, in turn, reacts with DTNB to form a chromophore, 5-thio-2-nitrobenzoic, which is quantified spectrophotometrically at 412 nm. The enzymatic activity was expressed in μmols of AcSCh/h/mg protein. Proteins were determined by the method of Bradford[29] using the Coomassie Blue reagent. Bovine albumin was used as standard.

AChE [2] = molecular target: T1, AChE; assay: In vitro AChE activity (Ellman method) in cerebral cortex homogenate; assay type: biochemical; conditions: for IC50: rat cerebral cortex homogenate, calculated with GraphPad Prism 5, read-out: IC50 of AChE inhibition, Cortex; for concentration from which AChE activity was inhibited, cerebral cortex: vs control group (water and methanol), p < .05, tested 0.1-250 μM
Experimental: as §1, §2

cortical astrocytes = assay: Cytotoxicity in cortical astrocyte primary culture (MTT cell viability); assay type: cell-based; conditions: 100 μM, 48 h and 72 h; p > .05
Experimental: In the evaluation of the cytotoxicity of the thiazolidin-4-ones and thiazinan-4-ones in astrocytes, Wistar rats (1–2 days) were used to obtain cortical astrocytes, which were cultured in 96-well plates (3x10^4 per well) and maintained with Dulbecco’s modified Eagle’s medium (DMEM) supplemented with 10% Bovine Foetal Serum (FBS)[30]. Cells were maintained under standard conditions (5% CO2, 37 °C and humidified atmosphere) for 15 days, receiving periodic exchange of culture medium until treatments were received. After time and maturation, the astrocytes were treated with the compounds at the concentration of 100 μM. Cells were exposed to this concentration for 48 h and 72 h. After treatment, cell viability was analysed by the test of 3-(4,5-dimethylthiazol-2yl)-2,5-diphenyltetrazolium bromide (MTT). This method consists of measuring the number of cells with the metabolically active mitochondria, based on the reduction of the tetrazolium salt to the formazan crystals. The absorbance was determined on a microplate reader at 492 nm. The absorbance is linearly proportional to the number of cells with active mitochondria, indicating how many viable cells remained at the end of the treatment.

T1 sequence (P37136 32-614): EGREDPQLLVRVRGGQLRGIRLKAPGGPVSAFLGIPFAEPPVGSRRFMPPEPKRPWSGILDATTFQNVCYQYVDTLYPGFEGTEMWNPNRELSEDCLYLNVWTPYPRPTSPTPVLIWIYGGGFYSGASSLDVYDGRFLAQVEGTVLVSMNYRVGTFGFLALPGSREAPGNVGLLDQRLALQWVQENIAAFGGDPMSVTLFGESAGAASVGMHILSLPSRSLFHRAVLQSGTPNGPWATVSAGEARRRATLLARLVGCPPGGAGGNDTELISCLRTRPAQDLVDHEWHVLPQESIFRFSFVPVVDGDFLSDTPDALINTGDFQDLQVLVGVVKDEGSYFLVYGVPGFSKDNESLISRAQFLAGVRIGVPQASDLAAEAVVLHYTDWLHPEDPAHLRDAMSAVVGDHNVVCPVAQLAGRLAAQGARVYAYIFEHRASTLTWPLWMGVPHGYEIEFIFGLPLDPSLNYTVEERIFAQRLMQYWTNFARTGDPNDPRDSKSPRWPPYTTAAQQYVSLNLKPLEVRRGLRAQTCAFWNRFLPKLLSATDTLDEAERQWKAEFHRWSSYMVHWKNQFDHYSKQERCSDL

Molecule	IC50 (AChE [1]) [µM]	concentration from which AChE activity was inhibited, hippocampus (AChE [1]) [µM]	IC50 (AChE [2]) [µM]	concentration from which AChE activity was inhibited, cerebral cortex (AChE [2]) [µM]	cell viability of astrocyte primary culture (MTT) (cortical astrocytes)	AChE inhibition activity (qualitative) (AChE [1]; disubstituted aryl, tissue not stated in the sentence (follows hippocampus results))
2-(2-methoxyphenyl)-3-(2-(pyrrolidin-1-yl)ethyl)-1,3-thiazinan-4-one [6l]	84.9	≥ 100	> 250	≥ 100		
O=C1CSC(c2ccccc2)N1CCN1CCCC1 (centres unmarked) [5a, 2-phenyl-3-(2-(pyrrolidin-1-yl)ethyl)thiazolidin-4-one]	30.9		> 250			
O=C1CSC(c2ccc(Cl)cc2)N1CCN1CCCC1 (centres unmarked) [5g, 2-(4-chlorophenyl)-3-(2-(pyrrolidin-1-yl)ethyl)thiazolidin-4-one]	> 250		> 250			
O=C1CSC(c2ccccc2[N+](=O)[O-])N1CCN1CCCC1 (centres unmarked) [5h, 2-(2-nitrophenyl)-3-(2-(pyrrolidin-1-yl)ethyl)thiazolidin-4-one]	105		> 250			
O=C1CSC(c2cccc([N+](=O)[O-])c2)N1CCN1CCCC1 (centres unmarked) [5i, 2-(3-nitrophenyl)-3-(2-(pyrrolidin-1-yl)ethyl)thiazolidin-4-one]	81.6	≥ 10	10.2	≥ 10		
O=C1CSC(c2ccc([N+](=O)[O-])cc2)N1CCN1CCCC1 (centres unmarked) [5j, 2-(4-nitrophenyl)-3-(2-(pyrrolidin-1-yl)ethyl)thiazolidin-4-one]	8.68	≥ 1	28.1	≥ 1	did not change de cell viability	
Cc1ccc(C2SCC(=O)N2CCN2CCCC2)cc1 (centres unmarked) [5k, 3-(2-(pyrrolidin-1-yl)ethyl)-2-p-tolylthiazolidin-4-one]	> 250		> 250			
COc1ccc(C2SCC(=O)N2CCN2CCCC2)cc1 (centres unmarked) [5n, 2-(4-methoxyphenyl)-3-(2-(pyrrolidin-1-yl)ethyl)thiazolidin-4-one]	> 250		> 250			
O=C1CSC(c2cccc(O)c2)N1CCN1CCCC1 (centres unmarked) [5o, 2-(3-hydroxyphenyl)-3-(2-(pyrrolidin-1-yl)ethyl)thiazolidin-4-one]	30.6		27.6			
O=C1CCSC(c2ccccc2)N1CCN1CCCC1 (centres unmarked) [6a, 2-phenyl-3-(2-(pyrrolidin-1-yl)ethyl)-1,3-thiazinan-4-one]	5.2	≥ 1	7.4	≥ 5	did not change de cell viability	
O=C1CCSC(c2ccc(Cl)cc2)N1CCN1CCCC1 (centres unmarked) [6g, 2-(4-chlorophenyl)-3-(2-(pyrrolidin-1-yl)ethyl)-1,3-thiazinan-4-one]	50.5		57.2			
O=C1CCSC(c2ccccc2[N+](=O)[O-])N1CCN1CCCC1 (centres unmarked) [6h, 2-(2-nitrophenyl)-3-(2-(pyrrolidin-1-yl)ethyl)-1,3-thiazinan-4-one]	92.8	5	11	≥ 1	did not change de cell viability	
O=C1CCSC(c2cccc([N+](=O)[O-])c2)N1CCN1CCCC1 (centres unmarked) [6i, 2-(3-nitrophenyl)-3-(2-(pyrrolidin-1-yl)ethyl)-1,3-thiazinan-4-one]	29.4	≥ 50	50.6	≥ 50		
O=C1CCSC(c2ccc([N+](=O)[O-])cc2)N1CCN1CCCC1 (centres unmarked) [6j, 2-(4-nitrophenyl)-3-(2-(pyrrolidin-1-yl)ethyl)-1,3-thiazinan-4-one]	9.32	≥ 1	40.1	≥ 10	did not change de cell viability	
Cc1ccc(C2SCCC(=O)N2CCN2CCCC2)cc1 (centres unmarked) [6k, 3-(2-(pyrrolidin-1-yl)ethyl)-2-(p-tolyl)-1,3-thiazinan-4-one]	4.46	≥ 1	6.83	≥ 5	did not change de cell viability	
COc1cccc(C2SCCC(=O)N2CCN2CCCC2)c1 (centres unmarked) [6m, 2-(3-methoxyphenyl)-3-(2-(pyrrolidin-1-yl)ethyl)-1,3-thiazinan-4-one]	90.3		24	≥ 25		
COc1ccc(C2SCCC(=O)N2CCN2CCCC2)cc1 (centres unmarked) [6n, 2-(4-methoxyphenyl)-3-(2-(pyrrolidin-1-yl)ethyl)-1,3-thiazinan-4-one]	17		22.2	≥ 5	did not change de cell viability	
O=C1CCSC(c2cccc(O)c2)N1CCN1CCCC1 (centres unmarked) [6o, 2-(3-hydroxyphenyl)-3-(2-(pyrrolidin-1-yl)ethyl)-1,3-thiazinan-4-one]	69.6		25.7	≥ 25		
COc1cccc(C2SCCC(=O)N2CCN2CCCC2)c1OC (centres unmarked) [6p, 2-(2,3-dimethoxyphenyl)-3-(2-(pyrrolidin-1-yl)ethyl)-1,3-thiazinan-4-one]						decrease in activity
